Measured values as given in US20240197869A1, “HYPERACTIVATORS OF MAMMALIAN DENDRITIC CELLS” (Corner Therapeutics, Inc., priority 2021, published 2024).

Key:
[1] = tested on: human monocyte-derived dendritic cells (moDCs); experiment: Lipid titration: IL-1β secretion by LPS-activated human moDCs; format: cell-based
Description: (§1) Quantification of IL-1beta Secretion. IL-1beta secretion was assessed using the ELISA MAX Deluxe Set Human IL-1beta kit (Biolegend). ELISAs were performed according to manufacturer's instructions with the following modifications: i) total sample volume for incubation was reduced from […] the top standard was prepared at […], with two-fold dilutions to […]; and iii) sample incubation was completed overnight at 4 C on an orbital shaker. […] To determine IL-1beta concentration in supernatants, sample IL-1beta concentrations were interpolated using a standard curve via 4PL analysis on GraphPad Prism 9 (GraphPad Software). The interpolated results of samples were then adjusted for any dilutions made to the supernatant.

[2] = tested on: human memory CD4+ T cells; experiment: Human moDC coculture with memory CD4 T cells: cytokine secretion; format: cell-based; conditions: moDC treated with R848 + lipid; limiting anti-CD3; 2 days after T cell addition
Description: Human moDC coculture with memory CD4 T cells. Human monocytes were isolated from leukopheresis products using Miltenyi StraightFrom LeukoPak CD14 microbeads as directed by manufacturer. Custom PBMC isolation microbead kits from Miltenyi were used to separate PBMCs from red blood cells and granulocytes from the same blood products. After PBMC purification, Miltenyi human memory CD4+ T cell isolation kits were used to negatively select the CD45RO+ fraction. Cells were cryogenically stored until ready for use in experiments.
Human monocytes were differentiated into dendritic cells as previously described using recombinant human GM-CSF and IL-4 for 6 days. moDCs were plated in R10 media at 5E4 cells/well into 96-well U-bottom microplates for hyperactivations. […] T cell stimulating anti-CD3 antibody was added into the culture (with or without blocking anti-IL-1beta antibody) prior to T cell addition. Autologous frozen memory CD4 T cells were thawed, resuspended in R10 media and added at 2.5×10^5 cells/well (ratio 1:5, DC:T cell). After two days incubation, cell culture supernatant was collected and used for measuring cytokine secretion. Commercially available kits such as Biolegend LegendPlex kits were used as directed by manufacturer's protocol to quantify cytokines of interest.
Four donors were tested with each experimental condition tested in triplicate. […]

[3] = tested on: human monocyte-derived dendritic cells (moDCs); experiment: DAMP screen: viability of human moDCs (CellTiter-Glo)
[4] = tested on: human monocyte-derived dendritic cells (moDCs); experiment: Lipid titration: viability of human moDCs (CellTiter-Glo)
[5] = tested on: human monocyte-derived dendritic cells (moDCs); experiment: DAMP screen: IL-1β secretion by LPS-activated human moDCs (ELISA); format: cell-based
Description: Danger-Associated Molecular Pattern (DAMP) Screen.
as §1

[6] = 82.5 μM lipid + LPS, selected lipids, Table 1-3 (repeats Table 1-1)

For `CCCCCCCCCC(=O)OC[C@@H](O)COP(=O)([O-])OCC[N+](C)(C)C` [10:0 LYSO PC], which IL-1β secretion ([1]; 10.3 μM lipid + LPS 1 μg/mL, 2 days, Table 1-5) is on record?
The IL-1β secretion was 35.7 pg/mL.

And the IL-1β secretion ([1]; 20.6 μM lipid + LPS, human moDCs, 4 donors, mean (SD in wrapped line below))?
The IL-1β secretion was 35.2 pg/mL.

And the “Activity Units (AU) ± SD (lipid activity index)” value ([1]; reciprocal of lowest concentration giving IL-1β two-fold over LPS x highest IL-1β signal, lipid 1.3-82.5 μM + LPS)?
The value was 0.00 ± 0.00 AU.

And the “IFN-gamma (Th1 response) from cocultured memory CD4 T cells (in words)” value [2]?
The value was “not detected”.

What about the “Relative Viability (%) ± SD” value ([3]; 41.3 μM lipid + LPS 1 μg/mL, 2 days, relative to LPS-treated moDCs, Table 1-2) of the same compound?
The value was 97.8%.

What about the “Relative Viability (%) ± SD” value ([3]; 82.5 μM lipid + LPS 1 μg/mL, 2 days, relative to LPS-treated moDCs, Table 1-1) of the same compound?
The value was 95.2%.

And the “Relative Viability (%) ± SD” value [3, 6]?
Its value is 95.2%.

And the “Relative Viability (%) ± SD” value ([4]; 10.3 μM lipid + LPS 1 μg/mL, 2 days, relative to LPS-treated moDCs, Table 1-5)?
The value was 100.5%.

What about the “Relative Viability (%) ± SD” value ([4]; 20.6 μM lipid + LPS, human moDCs, 4 donors, relative to LPS alone) of the same compound?
Its value is 100.4%.

And the IL-1β secretion ([5]; 41.3 μM lipid + LPS 1 μg/mL, 2 days, Table 1-2)?
The IL-1β secretion was 33.3 pg/mL.

What about the IL-1β secretion [5, 6] of the same compound?
Its IL-1β secretion is 37.8 pg/mL.
